The values that follow come from patent US20240124483A1, “Methods for the Treatment of Fibrotic Disease” (SHY Therapeutics, LLC, priority 2021, published 2024).

SMILES strings stand for the structures. Like-named read-outs stand apart in the source and are kept apart here.

One test addresses KRas G12C mutant (Homo sapiens (Human), UniProt P01116, G12C). Description: Ras GTP Binding Domain Inhibition Assay, KRas G12C mutant. The procedure: (§1) A Ras Superfamily Activity Assay (as disclosed in International Application No. PCT/US2018/038613, filed Jun. 20, 2018, which is incorporated by reference in its entirety) was used as a specific assay to evaluate compounds against the following for the following Ras Superfamily proteins: KRas wild type, KRas Q61H mutant, KRas G12C mutant, KRas G12D mutant, Rac-1, and Rho-A.
(§2) Buffer-I: • 25 mM Tris-HCl, pH 7.4 • 27 mM KCl • 137 mM NaCl • 1 mM MgCl2 • 1 mM DTT
(§3) Buffer-II: • 50 mM Tris-HCl, pH 7.0 • 1 mM MgCl2 • 1 mM DTT
(§4) The small GTPases proteins: KRas wild type. KRas Q61H mutant, KRas G12C mutant, KRas G12D mutants, Rac-1, and Rho-A were expressed as His-tagged proteins. In addition, the Guanosine nucleotide Exchange Factor (GEF) Sos protein (residues 556-1049) was expressed as a His-tagged protein. In cells, the guanine nucleotide exchange factor Sos protein promotes activation of Ras proteins by stimulating an exchange of GDP for GTP. The inclusion of Sos to the Ras GTP binding domain inhibition assay may be considered as an alternative representation of physiological cellular conditions for evaluating the inhibitory activity of some of the tested small molecules.
(§5) For the assay, all purified small GTPases proteins were diluted in Buffer-I or Buffer-II to a final concentration of 10-30 μg/mL. 200 μL of each diluted protein was added to a nickel-coated 96-well plate and incubated overnight at 4° C. Then the protein solution was discarded and 200 μL of Buffer-I or Buffer-II was added to each well in the presence of 1% DMSO. Compounds to be tested were added to the protein-coated wells at final concentration of 20 μM, and incubated for 3 hours at room temperature with and without 10-30 μg/mL of Sos added to the final hour of the incubation. When performing IC50 measurements a serial dilution of all tested concentrations was added. Then Cy3-GTP or Cy5-GTP was added to each well to a final concentration of 100 nM. The labeled GTP was incubated for 45 minutes at room temperature. Following GTP incubation, wells were washed 3× in Buffer-I or Buffer-II and 200 μL of Buffer-I or Buffer-II was added to each well. Following washes, the amount of bound labeled-GTP was measured using a SpectraMax M3 (Molecular Devices).

The target of a further test is Rho-A (Homo sapiens (Human), UniProt P61586). Description: Ras GTP Binding Domain Inhibition Assay, Rho-A. Conditions: without SOS, read-out: Rho-A: % inh. The procedure:
as §1, §2, §3, §4, §5

The next test concerns the target Rac-1 (Homo sapiens (Human), UniProt P63000). The experiment in a line: Ras GTP Binding Domain Inhibition Assay, Rac-1. Conditions: without SOS, read-out: Rac-1: % inh. As to the method: as §1, §2, §3, §4, §5
For another test, the target named is KRas wild type (Homo sapiens (Human), UniProt P01116). The experiment in a line: Ras GTP Binding Domain Inhibition Assay, KRas wild type. As to the method:
as §1, §2, §3, §4, §5

In another test the test system is JNK. Description: JNK Activation Assay in Panc-1 (western blot). Conditions: at 10 μM. Details: key: Y = yes; N = No. Type of test: cell-based, Human. As to the method:
Cell lines: Human tumor-derived pancreatic cancer cell line Panc-1 and mouse muscle myoblast C2C12 were purchased from American Type Culture Collection and grown in complete DMEM-High Glucose, supplemented with penicillin (100 U/mL), streptomycin (100 μg/mL), and 10% heat-inactivated FBS at 37° C. in a humidified incubator with 5% CO2.
Method: Cells were plated at 350000 cells/well density in a 12-well plate, allowed 3 hours to adhere to the plate, then starved in the appropriate medium in the presence of 0.5% FBS overnight. The small molecules to be tested were added to the cells in the final concentration of 10 μM in the presence of 0.3% DMSO for 3 hours incubation at 37° C. For IC50 value determination, serial dilutions of compounds were added to cells under the same conditions. Next, Panc-1 cells were stimulated with 10 ng/ml TGF-b1 for 1 hour, and C2C12 cells were stimulated with 10 ng/ml TGF-b1 for 20 minutes (recombinant human TGF-b1, R&D Systems). After stimulation cells were lysed with lysis buffer containing 1% Triton X-100, EDTA, and Halt™ Protease & Phosphatase Inhibitor Cocktail (Thermo Scientific). Protein concentration was assessed by BCA protein assay (Thermo Scientific). Phosphorylation level of JNK was determined by western blot.
Western blot protocol: Equal amounts of protein (15-50 μg) were separated by SDS-PAGE and transferred to nitrocellulose membranes (Invitrogen by Thermo Fisher Scientific). The membrane was stained with Ponceau S Stain (Boston BioProducts) to verify uniform protein loading. Membranes were blocked with 10% milk and phosphorylation levels of Smad2, Smad3, INK and p38 were assessed by incubating overnight at 4° C. with the following antibody: Phospho-SAPK/JNK (Thr183/Tyr185), from Cell Signaling Technology. Then the membranes were incubated with HRP-conjugated secondary antibody (Jackson Immunoresearch, West Grove, PA). Bands were incubated in Amersham ECL Prime Western Blotting Detection Reagent (GE Healthcare) and visualized using the ChemiDoc MP imaging system (Bio-Rad).
(In general: Immunoblotting shows a protein as a band on a membrane.)

Setting [1] is: + SOS, read-out: KRas G12C mutant + SOS: % inh.
Setting [2] is: without SOS, read-out: KRas G12C mutant: % inh.
[3] abbreviates: + SOS, read-out: KRas wild type + SOS: % inh.
Setting [4] is: without SOS, read-out: KRas wild type: % inh.

Chain of Rho-A (P61586 whole entry, species assumed, the tested form may be a part): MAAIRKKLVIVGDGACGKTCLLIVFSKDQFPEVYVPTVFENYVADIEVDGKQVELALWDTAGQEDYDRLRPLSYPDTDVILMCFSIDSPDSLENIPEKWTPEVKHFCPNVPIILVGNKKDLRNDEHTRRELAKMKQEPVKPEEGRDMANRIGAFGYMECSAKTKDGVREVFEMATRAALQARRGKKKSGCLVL
Chain of KRas wild type (P01116 other isoform, or with tags, fused parts or gaps): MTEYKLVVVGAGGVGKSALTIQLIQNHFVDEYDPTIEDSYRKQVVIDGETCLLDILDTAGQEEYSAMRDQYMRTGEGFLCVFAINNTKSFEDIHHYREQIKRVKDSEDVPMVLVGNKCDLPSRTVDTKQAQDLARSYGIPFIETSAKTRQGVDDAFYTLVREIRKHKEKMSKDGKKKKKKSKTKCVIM
Chain of KRas G12C mutant (P01116 other isoform, or with tags, fused parts or gaps G12C): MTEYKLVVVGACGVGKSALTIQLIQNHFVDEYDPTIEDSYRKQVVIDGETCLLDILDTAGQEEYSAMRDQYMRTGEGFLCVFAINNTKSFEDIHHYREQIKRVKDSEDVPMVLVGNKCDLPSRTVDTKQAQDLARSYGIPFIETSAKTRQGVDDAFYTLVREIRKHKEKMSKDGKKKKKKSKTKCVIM

Consider `COCC1(OC)CCN(c2nc(-c3nccn3C)nc3sc(-c4ccn(C(C)C)n4)c(C)c23)C1` (racemic) [Compound 27, rac-6-(1-Isopropyl-1H-pyrazol-3-yl)-4-(3-methoxy-3-(methoxymethyl)pyrrolidin-1-yl)-5-methyl-2-(1-methyl-1H-imidazol-2-yl)thieno[2,3-d]pyrimidine], for which the inhibition at 20 µM was 76 to 100% at KRas G12C mutant (setting [1]); 76 to 100% on KRas G12C mutant (setting [2]); 46 to 75% at Rho-A; 1 to 25% at Rac-1; 76 to 100% at KRas wild type (setting [3]); 76 to 100% on KRas wild type (setting [4]). The “Activation of JNK in PANC-1” value in the test on JNK is “Y”.
In the case of `COCCn1ccc(-c2sc3nc(-c4nccn4C)nc(NC[C@H]4CC[C@H]4COC)c3c2C)n1` (racemic) [Compound 38, rac-6-(1-(2-Methoxyethyl)-1H-pyrazol-3-yl)-N-(((1S,2R)-2-(methoxymethyl)cyclobutyl)methyl)-5-methyl-2-(1-methyl-1H-imidazol-2-yl)thieno[2,3-d]pyrimidin-4-amine], the inhibition at 20 µM was in the range of 76 to 100% on KRas G12C mutant (setting [1]); 46 to 75% at KRas G12C mutant (setting [2]); 26 to 45% at Rho-A; 1 to 25% on Rac-1; 76 to 100% at KRas wild type (setting [3]); 46 to 75% on KRas wild type (setting [4]). Moreover, the “Activation of JNK in PANC-1” value in the test on JNK is reported as “Y”.
For `COCCn1ccc(-c2sc3nc(-c4nccn4C)nc(N[C@@H]4CC[C@H](OC)C4)c3c2C)n1` (racemic) [Compound 39, rac-N-((1R,3S)-3-Methoxycyclopentyl)-6-(1-(2-methoxyethyl)-1H-pyrazol-3-yl)-5-methyl-2-(1-methyl-1H-imidazol-2-yl)thieno[2,3-d]pyrimidin-4-amine], the inhibition at 20 µM at KRas G12C mutant (setting [1]) is 76 to 100%; at KRas G12C mutant (setting [2]), 76 to 100%; at Rho-A it was 46 to 75%; at Rac-1, 26 to 45%; at KRas wild type (setting [3]), 76 to 100%; on KRas wild type (setting [4]), 76 to 100%. Moreover, the “Activation of JNK in PANC-1” value with JNK is recorded as “Y”.
Take `COc1cccc(-c2sc3nc(-c4nccn4C)nc(N[C@@H]4CC[C@@H](OC)C4)c3c2-c2ccccc2)c1F` (racemic) [Compound 41, 6-(2-Fluoro-3-methoxyphenyl)-N-((1R,3R)-3-methoxycyclopentyl)-2-(1-methyl-1H-imidazol-2-yl)-5-phenylthieno[2,3-d]pyrimidin-4-amine]: the inhibition at 20 µM was 76 to 100% on KRas G12C mutant (setting [1]); 26 to 45% at KRas G12C mutant (setting [2]); 0% on Rho-A; 1 to 25% at Rac-1; 76 to 100% on KRas wild type (setting [3]); 26 to 45% on KRas wild type (setting [4]). The “Activation of JNK in PANC-1” value with JNK is “Y”.
Turning to `COc1cccc(-c2sc3nc(-c4nccn4C)nc(N[C@@H]4CC[C@@H](OC)C4)c3c2C)c1F` (racemic) [Compound 43, rac-6-(2-Fluoro-3-methoxyphenyl)-N-((1R,3R)-3-methoxycyclopentyl)-5-methyl-2-(1-methyl-1H-imidazol-2-yl)thieno[2,3-d]pyrimidin-4-amine], the inhibition at 20 µM at KRas G12C mutant (setting [1]) was 76 to 100%; at KRas G12C mutant (setting [2]) it was 26 to 45%; at Rho-A, 26 to 45%; on Rac-1, 1 to 25%; on KRas wild type (setting [3]), 76 to 100%; at KRas wild type (setting [4]), 26 to 45%. For the same compound, the “Activation of JNK in PANC-1” value in the test on JNK is recorded as “Y”.
Regarding `COc1cc(-c2sc3nc(-c4nccn4C)nc(N[C@@H]4CC[C@H](OC)C4)c3c2-c2ccccc2)ccn1` (racemic) [Compound 44, rac-N-((1R,3S)-3-Methoxycyclopentyl)-6-(2-methoxypyridin-4-yl)-2-(1-methyl-1H-imidazol-2-yl)-5-phenylthieno[2,3-d]pyrimidin-4-amine], the inhibition at 20 µM on KRas G12C mutant (setting [1]) was 76 to 100%; on KRas G12C mutant (setting [2]), 26 to 45%; on Rho-A, 0%; on Rac-1, 0%; on KRas wild type (setting [3]), 76 to 100%; on KRas wild type (setting [4]), 46 to 75%. Besides, in the test with JNK, the “Activation of JNK in PANC-1” value is recorded as “Y”.
